Data on three molecules can be found in ChEMBL document CHEMBL1127223, “Evaluation of the intestinal permeability and hepatic handling of peptidomimetic analogs” (Bioorg Med Chem Lett, 1993).

Converted amounts (≈) assume the structure as drawn.

Data set [1] is described as follows: Partition coefficient (LogP) value was evaluated. The data set is classed as physicochemical. Particulars: octanol/water.
Data set [2] is described as follows: Tested for aqueous solubility of the compound. The following applies: read-out: S. It counts as physicochemical.
For data set [3], the target named is T1, Renin (Rattus norvegicus) (UniProt P08424).
T1 sequence (whole entry): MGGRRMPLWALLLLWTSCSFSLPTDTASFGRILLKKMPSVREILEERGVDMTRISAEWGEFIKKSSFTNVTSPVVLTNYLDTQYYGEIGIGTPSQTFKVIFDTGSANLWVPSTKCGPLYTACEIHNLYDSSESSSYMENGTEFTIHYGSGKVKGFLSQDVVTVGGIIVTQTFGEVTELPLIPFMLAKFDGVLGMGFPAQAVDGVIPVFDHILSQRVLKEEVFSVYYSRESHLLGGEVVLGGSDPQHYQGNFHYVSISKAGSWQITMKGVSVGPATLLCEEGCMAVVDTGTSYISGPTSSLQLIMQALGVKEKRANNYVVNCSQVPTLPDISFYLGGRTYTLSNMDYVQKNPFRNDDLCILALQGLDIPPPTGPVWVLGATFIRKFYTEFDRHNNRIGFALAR
Description: Tested for percent inhibition against renin at 10 e-6 M concentration in rat. It counts as functional.

The nature of data set [4]: Tested for pKa value of the compound. The data set is classed as physicochemical.
Data set [5] has as its target T1, Renin (Rattus norvegicus). The data set is described as follows: Tested for % inhibition against renin at 10E-6 M concentration. It counts as functional.

The logP is a log measure of how a compound divides between an organic and an aqueous phase. The low end stands for a more hydrophilic compound, the high end for a more lipophilic compound. For orientation: inhibition means the drop in the measured response relative to a control, in per cent. Higher therefore signals a strong effect. The molecule `CC(C)C[C@H](O)[C@H](O)[C@H](CC1CCCCC1)NC(=O)OC(C)(C)C` displayed a logP in data set [1] of 4. In data set [2], the solubility is less than 20 µg/mL. This molecule registered an inhibition in data set [3] of 0%.

A word on the pKa: it is the negative logarithm of the acid dissociation constant. Lower therefore signals a stronger acid or weaker base. With `CC(C)C[C@H](O)[C@H](O)[C@H](CC1CCCCC1)NC(=O)[C@H](Cc1csc(N)n1)NC(=O)[C@H](Cc1ccccc1)NS(=O)(=O)N1CCOCC1`, the logP in data set [1] came out at 3.1. The solubility in data set [2] turned out to be 10 µg/mL (≈ 14.1 µM). For the same molecule, in data set [4], the pKa was 6.3.

`CC(C)C[C@H](O)[C@H](O)[C@@H](N)CC1CCCCC1`: the logP in data set [1] stood at 2. The solubility in data set [2] amounted to 5870 µg/mL (≈ 24100 µM). In data set [4], this molecule showed a pKa of 9.3. In data set [5], this molecule yielded an inhibition of 0%.
